This note sets out measurements from patent US7799809B2, “Carboxamide compounds and their use as calpain inhibitors” (Abbott GmbH & Co. KG, priority 2006, dated 2010).

Format in all cases: biochemical
The target of one experiment is T1, cathepsin B (Homo sapiens, UniProt P07858).
T1 construct: cathepsin B—isolated from human liver (Calbiochem #219362); purchased Calbiochem 219362; host or cells: human liver (tissue-derived)
In words: Cathepsin B enzyme inhibition in vitro (kinetic fluorescence assay). The following applies: cathepsin B isolated from human liver vs calpain I. Summed up: (§1)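 cat B 0.25 nM + Z-Phe-Arg-AMC 100 μM; cat L 1 nM + Z-Phe-Arg-AMC 2 μM; cat S 0.5 nM (E. coli-expressed) + Z-Val-Val-Arg-AMC 20 μM. 50 mM MES pH 6.0, 2.5 mM L-Cys, RT. Ex 390/em 460, kinetic; Ki app = Cheng-Prusoff from IC50, mean of 2–4 curves.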

The next experiment has as its target T2, cathepsin K (Homo sapiens, UniProt P43235).
T2 construct: purchased Calbiochem 342001; host or cells: E. coli
T2 sequence (P43235 115-329): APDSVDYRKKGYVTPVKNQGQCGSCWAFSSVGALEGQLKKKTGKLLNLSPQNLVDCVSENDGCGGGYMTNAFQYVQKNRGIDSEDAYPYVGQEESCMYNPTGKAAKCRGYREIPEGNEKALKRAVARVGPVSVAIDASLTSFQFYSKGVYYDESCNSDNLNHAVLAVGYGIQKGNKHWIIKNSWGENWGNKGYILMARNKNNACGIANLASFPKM
In words: Cathepsin K enzyme inhibition in vitro (kinetic fluorescence assay). The settings on record: cathepsin K activated from recombinant human procathepsin K vs calpain I.

The target in a further experiment is T3, cathepsin L (Homo sapiens, UniProt P07711).
T3 construct: cathepsin L—isolated from human liver (Calbiochem #219402); purchased Calbiochem 219402; host or cells: human liver (tissue-derived)
T3 sequence (P07711 114-333): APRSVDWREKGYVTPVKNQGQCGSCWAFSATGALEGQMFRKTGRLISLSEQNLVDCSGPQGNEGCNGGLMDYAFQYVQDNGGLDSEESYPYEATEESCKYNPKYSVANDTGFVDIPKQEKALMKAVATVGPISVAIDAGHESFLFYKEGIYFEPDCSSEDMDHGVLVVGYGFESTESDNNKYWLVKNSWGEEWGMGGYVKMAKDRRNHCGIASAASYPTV
Nature of the experiment: Cathepsin L enzyme inhibition in vitro (kinetic fluorescence assay). The following applies: cathepsin L isolated from human liver vs calpain I. Summed up: as §1

Another experiment addresses T4, cathepsin S (Homo sapiens, UniProt P25774).
T4 construct: purchased Calbiochem 219343; host or cells: E. coli
Nature of the experiment: Cathepsin S enzyme inhibition in vitro (kinetic fluorescence assay). The settings on record: recombinant human cathepsin S vs calpain I. Summed up: as §1

T4 sequence (P25774 115-331): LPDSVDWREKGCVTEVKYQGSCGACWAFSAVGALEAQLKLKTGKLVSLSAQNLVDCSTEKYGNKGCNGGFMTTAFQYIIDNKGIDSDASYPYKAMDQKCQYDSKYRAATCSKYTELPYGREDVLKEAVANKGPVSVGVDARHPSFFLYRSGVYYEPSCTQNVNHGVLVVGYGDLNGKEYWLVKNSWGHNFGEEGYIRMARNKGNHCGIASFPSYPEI

As to `NC(=O)C(=O)C(Cc1ccccc1)NC(=O)c1cccnc1-n1cc2c(n1)-c1cc(Cl)ccc1OC2` (stereo not shown) [Example 140, N-[3-Amino-2,3-dioxo-1-(phenylmethyl)propyl]-2-(8-chlorochromeno[4,3-c]pyrazol-2(4H)-yl)pyridine-3-carboxamide], the “Sel cat. B: Ki(cathepsin B)/Ki(calpain) ratio” value on cathepsin B is reported as “+ (+ means 10≦Ki(cathepsin B)/Ki(calpain)<30)”. Moreover, the “Sel cat. K: Ki(cathepsin K)/Ki(calpain) ratio” value at cathepsin K is “++ (++ means a Ki(cathepsin K)/Ki(calpain) ratio of ≧30)”. Also, the “Sel cat. L: Ki(cathepsin L)/Ki(calpain) ratio” value on cathepsin L was “++ (++ means a Ki(cathepsin L)/Ki(calpain) ratio of ≧50)”. The “Sel cat. S: Ki(cathepsin S)/Ki(calpain) ratio” value on cathepsin S is recorded as “++ (++ means a Ki(cathepsin S)/Ki(calpain) ratio of ≧100)”.

With `COc1ccc(CC(NC(=O)c2cccnc2-n2ccc(-c3cccc4ccccc34)n2)C(=O)C(N)=O)cc1` (stereo not shown) [Example 135, N-(3-Amino-1-{[4-(methyloxy)phenyl]methyl}-2,3-dioxopropyl)-2-(3-naphthalen-1-yl-1H-pyrazol-1-yl)pyridine-3-carboxamide], at cathepsin B, the “Sel cat. B: Ki(cathepsin B)/Ki(calpain) ratio” value is “++ (++ means a Ki(cathepsin B)/Ki(calpain) ratio of ≧30)”. At cathepsin K, the “Sel cat. K: Ki(cathepsin K)/Ki(calpain) ratio” value is reported as “++ (++ means a Ki(cathepsin K)/Ki(calpain) ratio of ≧30)”. For the same molecule, at cathepsin L, the “Sel cat. L: Ki(cathepsin L)/Ki(calpain) ratio” value is reported as “++ (++ means a Ki(cathepsin L)/Ki(calpain) ratio of ≧50)”. Moreover, the “Sel cat. S: Ki(cathepsin S)/Ki(calpain) ratio” value on cathepsin S is reported as “++ (++ means a Ki(cathepsin S)/Ki(calpain) ratio of ≧100)”.

As for `NC(=O)C(=O)C(Cc1ccccc1)NC(=O)c1cccnc1-n1ccc(-c2cccc3cccnc23)n1` (stereo not shown) [Example 160, N-[3-amino-2,3-dioxo-1-(phenylmethyl)propyl]-2-(3-quinolin-8-yl-1H-pyrazol-1-yl)pyridine-3-carboxamide], the “Sel cat. B: Ki(cathepsin B)/Ki(calpain) ratio” value at cathepsin B was “++ (++ means a Ki(cathepsin B)/Ki(calpain) ratio of ≧30)”. The “Sel cat. K: Ki(cathepsin K)/Ki(calpain) ratio” value at cathepsin K is given as “++ (++ means a Ki(cathepsin K)/Ki(calpain) ratio of ≧30)”. Also, at cathepsin L, the “Sel cat. L: Ki(cathepsin L)/Ki(calpain) ratio” value is listed as “++ (++ means a Ki(cathepsin L)/Ki(calpain) ratio of ≧50)”. In addition, at cathepsin S, the “Sel cat. S: Ki(cathepsin S)/Ki(calpain) ratio” value is on record as “++ (++ means a Ki(cathepsin S)/Ki(calpain) ratio of ≧100)”.

Consider `COc1ccc(CC(NC(=O)c2cccnc2-n2ccc(-c3ccccc3F)n2)C(=O)C(N)=O)cc1` (stereo not shown) [Example 92, N-(3-Amino-1-{[4-(methyloxy)phenyl]methyl}-2,3-dioxopropyl)-2-[3-(2-fluorophenyl)-1H-pyrazol-1-yl]pyridine-3-carboxamide], for which, on cathepsin B, the “Sel cat. B: Ki(cathepsin B)/Ki(calpain) ratio” value is on record as “++ (++ means a Ki(cathepsin B)/Ki(calpain) ratio of ≧30)”. In addition, the “Sel cat. K: Ki(cathepsin K)/Ki(calpain) ratio” value on cathepsin K was “+ (+ means 10≦Ki(cathepsin K)/Ki(calpain)<30)”. Besides, at cathepsin L, the “Sel cat. L: Ki(cathepsin L)/Ki(calpain) ratio” value is “++ (++ means a Ki(cathepsin L)/Ki(calpain) ratio of ≧50)”. In addition, on cathepsin S, the “Sel cat. S: Ki(cathepsin S)/Ki(calpain) ratio” value is recorded as “++ (++ means a Ki(cathepsin S)/Ki(calpain) ratio of ≧100)”.

Consider `COc1ccc(CC(NC(=O)c2cccnc2-n2ccc(-c3ccc(F)cc3F)n2)C(=O)C(N)=O)cc1` (stereo not shown) [Example 97, N-(3-Amino-1-{[4-(methyloxy)phenyl]methyl}-2,3-dioxopropyl)-2-[3-(2,4-difluorophenyl)-1H-pyrazol-1-yl]pyridine-3-carboxamide], for which the “Sel cat. B: Ki(cathepsin B)/Ki(calpain) ratio” value on cathepsin B is listed as “++ (++ means a Ki(cathepsin B)/Ki(calpain) ratio of ≧30)”. In addition, the “Sel cat. K: Ki(cathepsin K)/Ki(calpain) ratio” value on cathepsin K is “+ (+ means 10≦Ki(cathepsin K)/Ki(calpain)<30)”. In addition, on cathepsin L, the “Sel cat. L: Ki(cathepsin L)/Ki(calpain) ratio” value is “++ (++ means a Ki(cathepsin L)/Ki(calpain) ratio of ≧50)”. Further, the “Sel cat. S: Ki(cathepsin S)/Ki(calpain) ratio” value on cathepsin S is recorded as “++ (++ means a Ki(cathepsin S)/Ki(calpain) ratio of ≧100)”.

Turning to `NC(=O)C(=O)C(Cc1ccccc1)NC(=O)c1cccnc1-n1ccc(-c2c(F)ccc(Cl)c2Cl)n1` (stereo not shown) [Example 120, N-[3-Amino-2,3-dioxo-1-(phenylmethyl)propyl]-2-[3-(2,3-dichloro-6-fluorophenyl)-1H-pyrazol-1-yl]pyridine-3-carboxamide], the “Sel cat. B: Ki(cathepsin B)/Ki(calpain) ratio” value at cathepsin B is “++ (++ means a Ki(cathepsin B)/Ki(calpain) ratio of ≧30)”. Moreover, the “Sel cat. K: Ki(cathepsin K)/Ki(calpain) ratio” value at cathepsin K is “++ (++ means a Ki(cathepsin K)/Ki(calpain) ratio of ≧30)”. Besides, on cathepsin L, the “Sel cat. L: Ki(cathepsin L)/Ki(calpain) ratio” value is reported as “+ (+ means 30≦Ki(cathepsin L)/Ki(calpain)<50)”. Besides, at cathepsin S, the “Sel cat. S: Ki(cathepsin S)/Ki(calpain) ratio” value is on record as “++ (++ means a Ki(cathepsin S)/Ki(calpain) ratio of ≧100)”.

As for `NC(=O)C(=O)C(Cc1ccc(F)cc1)NC(=O)c1cccnc1-n1ccc(-c2ccccc2OC(F)(F)F)n1` (stereo not shown) [Example 152, N-{3-Amino-1-[(4-fluorophenyl)methyl]-2,3-dioxopropyl}-2-(3-{2-[(trifluoromethyl)oxy]phenyl}-1H-pyrazol-1-yl)pyridine-3-carboxamide], on cathepsin B, the “Sel cat. B: Ki(cathepsin B)/Ki(calpain) ratio” value is reported as “++ (++ means a Ki(cathepsin B)/Ki(calpain) ratio of ≧30)”. The “Sel cat. K: Ki(cathepsin K)/Ki(calpain) ratio” value at cathepsin K is listed as “++ (++ means a Ki(cathepsin K)/Ki(calpain) ratio of ≧30)”. Moreover, at cathepsin L, the “Sel cat. L: Ki(cathepsin L)/Ki(calpain) ratio” value is given as “++ (++ means a Ki(cathepsin L)/Ki(calpain) ratio of ≧50)”. Further, at cathepsin S, the “Sel cat. S: Ki(cathepsin S)/Ki(calpain) ratio” value is on record as “++ (++ means a Ki(cathepsin S)/Ki(calpain) ratio of ≧100)”.

Turning to `NC(=O)C(=O)C(Cc1ccccc1)NC(=O)c1cccnc1-n1ccc(-c2cccc(Cl)c2Cl)n1` (stereo not shown) [Example 115, N-[3-Amino-2,3-dioxo-1-(phenylmethyl)propyl]-2-[3-(2,3-dichlorophenyl)-1H-pyrazol-1-yl]pyridine-3-carboxamide], the “Sel cat. B: Ki(cathepsin B)/Ki(calpain) ratio” value on cathepsin B is reported as “++ (++ means a Ki(cathepsin B)/Ki(calpain) ratio of ≧30)”. The “Sel cat. K: Ki(cathepsin K)/Ki(calpain) ratio” value on cathepsin K is reported as “++ (++ means a Ki(cathepsin K)/Ki(calpain) ratio of ≧30)”. Further, on cathepsin L, the “Sel cat. L: Ki(cathepsin L)/Ki(calpain) ratio” value is “++ (++ means a Ki(cathepsin L)/Ki(calpain) ratio of ≧50)”. For the same molecule, the “Sel cat. S: Ki(cathepsin S)/Ki(calpain) ratio” value at cathepsin S is “++ (++ means a Ki(cathepsin S)/Ki(calpain) ratio of ≧100)”.

With `COc1ccccc1-c1ccn(-c2ncccc2C(=O)NC(Cc2ccccc2)C(=O)C(N)=O)n1` (stereo not shown) [Example 90, N-[3-Amino-2,3-dioxo-1-(phenylmethyl)propyl]-2-{3-[2-(methyloxy)phenyl]-1H-pyrazol-1-yl}pyridine-3-carboxamide], the “Sel cat. B: Ki(cathepsin B)/Ki(calpain) ratio” value on cathepsin B is on record as “++ (++ means a Ki(cathepsin B)/Ki(calpain) ratio of ≧30)”. The “Sel cat. K: Ki(cathepsin K)/Ki(calpain) ratio” value on cathepsin K was “+ (+ means 10≦Ki(cathepsin K)/Ki(calpain)<30)”. Also, the “Sel cat. L: Ki(cathepsin L)/Ki(calpain) ratio” value on cathepsin L was “++ (++ means a Ki(cathepsin L)/Ki(calpain) ratio of ≧50)”. On cathepsin S, the “Sel cat. S: Ki(cathepsin S)/Ki(calpain) ratio” value is given as “++ (++ means a Ki(cathepsin S)/Ki(calpain) ratio of ≧100)”.

In the case of `COc1cc(Cl)ccc1-c1ccn(-c2ncccc2C(=O)NC(Cc2ccccc2)C(=O)C(N)=O)n1` (stereo not shown) [Example 139, N-[3-Amino-2,3-dioxo-1-(phenylmethyl)propyl]-2-{3-[4-chloro-2-(methyloxy)phenyl]-1H-pyrazol-1-yl}pyridine-3-carboxamide], the “Sel cat. B: Ki(cathepsin B)/Ki(calpain) ratio” value at cathepsin B is recorded as “+ (+ means 10≦Ki(cathepsin B)/Ki(calpain)<30)”. Besides, at cathepsin K, the “Sel cat. K: Ki(cathepsin K)/Ki(calpain) ratio” value was “++ (++ means a Ki(cathepsin K)/Ki(calpain) ratio of ≧30)”. In addition, the “Sel cat. L: Ki(cathepsin L)/Ki(calpain) ratio” value at cathepsin L is given as “++ (++ means a Ki(cathepsin L)/Ki(calpain) ratio of ≧50)”. Also, the “Sel cat. S: Ki(cathepsin S)/Ki(calpain) ratio” value on cathepsin S is “++ (++ means a Ki(cathepsin S)/Ki(calpain) ratio of ≧100)”.
